Measured values published in patent US20230219986A1, “NOVEL AMINOPYRIMIDINE EGFR INHIBITOR” (QILU PHARMACEUTICAL CO., LTD., priority 2020, published 2023).
Where two headings read alike, the source gives them in different places.

Key:
[1] = target: Ba/F3 L858R/T790M/C797S EGFR triple mutant cell line (Homo sapiens, UniProt P00533, T790M/C797S/L858R, cells depend on it); assay: Cell proliferation inhibition experiment (CellTiter-Glo), Ba/F3 L858R/T790M/C797S; assay type: cell-based; conditions: 72 hours, Cell Titer-Glo, read-out: Ba/F3 (L858R/T790M/C797S) IC50
Chain of Ba/F3 L858R/T790M/C797S EGFR triple mutant cell line (P00533 whole entry T790M/C797S/L858R): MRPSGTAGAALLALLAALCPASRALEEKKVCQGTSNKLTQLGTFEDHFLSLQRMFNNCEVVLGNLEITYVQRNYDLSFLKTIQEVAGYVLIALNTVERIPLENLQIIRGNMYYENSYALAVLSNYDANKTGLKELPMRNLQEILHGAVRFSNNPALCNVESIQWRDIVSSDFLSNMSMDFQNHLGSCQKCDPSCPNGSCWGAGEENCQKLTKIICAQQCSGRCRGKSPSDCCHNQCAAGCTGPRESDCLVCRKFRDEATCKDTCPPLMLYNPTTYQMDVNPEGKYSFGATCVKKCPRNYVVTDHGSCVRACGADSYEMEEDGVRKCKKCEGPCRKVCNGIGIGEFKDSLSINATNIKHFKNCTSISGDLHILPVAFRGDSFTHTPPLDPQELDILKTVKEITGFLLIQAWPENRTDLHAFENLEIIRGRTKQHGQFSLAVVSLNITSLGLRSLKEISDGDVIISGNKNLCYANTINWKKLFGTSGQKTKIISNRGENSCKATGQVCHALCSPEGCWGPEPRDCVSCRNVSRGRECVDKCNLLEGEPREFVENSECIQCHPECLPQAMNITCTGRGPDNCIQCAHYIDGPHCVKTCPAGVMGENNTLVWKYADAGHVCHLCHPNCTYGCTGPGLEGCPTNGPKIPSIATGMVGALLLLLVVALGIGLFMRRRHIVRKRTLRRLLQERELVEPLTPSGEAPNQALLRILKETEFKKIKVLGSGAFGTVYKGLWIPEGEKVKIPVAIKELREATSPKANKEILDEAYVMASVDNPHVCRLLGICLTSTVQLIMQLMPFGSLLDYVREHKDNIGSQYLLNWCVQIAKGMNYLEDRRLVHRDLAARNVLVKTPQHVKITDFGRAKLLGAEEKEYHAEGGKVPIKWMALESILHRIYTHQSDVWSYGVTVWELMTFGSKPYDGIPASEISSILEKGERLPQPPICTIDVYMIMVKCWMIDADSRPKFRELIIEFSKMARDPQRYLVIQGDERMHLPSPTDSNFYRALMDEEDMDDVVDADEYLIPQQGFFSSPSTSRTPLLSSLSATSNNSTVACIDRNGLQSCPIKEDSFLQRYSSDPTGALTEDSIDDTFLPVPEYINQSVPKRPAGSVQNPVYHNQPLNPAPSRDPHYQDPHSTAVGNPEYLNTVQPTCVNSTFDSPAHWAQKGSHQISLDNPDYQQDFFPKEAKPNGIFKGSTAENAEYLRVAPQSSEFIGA

[2] = target: Ba/F3 De119/T790M/C797S EGFR triple mutant cell line (Homo sapiens, UniProt P00533, T790M/C797S, cells depend on it, form not given); assay: Cell proliferation inhibition experiment (CellTiter-Glo), Ba/F3 De119/T790M/C797S; assay type: cell-based; conditions: Ba/F3 Del19/T790M/C797S EGFR triple mutant cells, 72 hours, Cell Titer-Glo; read-out: Ba/F3 (Del19/T790M/C797S) IC50
Chain of Ba/F3 De119/T790M/C797S EGFR triple mutant cell line (P00533 with tags, fused parts or gaps DEL746-750/T790M/C797S, form open): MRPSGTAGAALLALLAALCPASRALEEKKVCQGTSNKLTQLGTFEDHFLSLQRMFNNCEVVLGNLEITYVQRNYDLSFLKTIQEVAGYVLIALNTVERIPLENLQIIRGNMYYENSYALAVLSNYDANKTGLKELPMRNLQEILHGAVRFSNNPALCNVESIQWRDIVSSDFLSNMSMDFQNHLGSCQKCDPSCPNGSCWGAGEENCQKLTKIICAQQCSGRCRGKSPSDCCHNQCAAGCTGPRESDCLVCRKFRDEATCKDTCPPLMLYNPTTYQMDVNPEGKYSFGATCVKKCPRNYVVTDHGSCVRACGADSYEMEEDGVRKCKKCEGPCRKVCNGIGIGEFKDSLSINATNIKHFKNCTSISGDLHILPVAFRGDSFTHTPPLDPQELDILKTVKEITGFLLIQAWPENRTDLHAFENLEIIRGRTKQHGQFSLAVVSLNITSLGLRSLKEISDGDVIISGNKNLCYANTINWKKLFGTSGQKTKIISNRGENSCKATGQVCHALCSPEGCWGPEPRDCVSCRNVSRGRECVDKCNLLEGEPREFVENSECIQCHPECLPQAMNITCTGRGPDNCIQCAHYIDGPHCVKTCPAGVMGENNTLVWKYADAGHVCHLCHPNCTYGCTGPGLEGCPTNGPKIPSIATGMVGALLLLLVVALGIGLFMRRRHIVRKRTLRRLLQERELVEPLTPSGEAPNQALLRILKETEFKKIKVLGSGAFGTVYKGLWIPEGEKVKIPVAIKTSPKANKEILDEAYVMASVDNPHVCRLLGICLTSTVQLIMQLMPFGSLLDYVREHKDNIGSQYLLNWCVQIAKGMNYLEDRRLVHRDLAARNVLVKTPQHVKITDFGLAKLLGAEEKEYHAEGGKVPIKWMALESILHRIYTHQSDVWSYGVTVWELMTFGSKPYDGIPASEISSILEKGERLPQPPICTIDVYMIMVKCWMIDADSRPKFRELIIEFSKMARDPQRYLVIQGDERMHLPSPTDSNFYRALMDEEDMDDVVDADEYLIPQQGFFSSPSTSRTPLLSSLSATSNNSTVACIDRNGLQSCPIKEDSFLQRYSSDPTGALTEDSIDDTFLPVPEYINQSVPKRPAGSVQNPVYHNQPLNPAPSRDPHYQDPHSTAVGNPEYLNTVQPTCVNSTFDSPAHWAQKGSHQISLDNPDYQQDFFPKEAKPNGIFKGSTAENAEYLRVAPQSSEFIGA

wild-type EGFR = target: T1, wild-type EGFR (Homo sapiens, UniProt P00533); assay: Enzymology experiment in vitro (HTRF/FRET kinase activity), wild-type EGFR; assay type: biochemical; conditions: HTRF KinEASE-TK
T1 construct: purchased Signalchem
T1 sequence (P00533 25-1210): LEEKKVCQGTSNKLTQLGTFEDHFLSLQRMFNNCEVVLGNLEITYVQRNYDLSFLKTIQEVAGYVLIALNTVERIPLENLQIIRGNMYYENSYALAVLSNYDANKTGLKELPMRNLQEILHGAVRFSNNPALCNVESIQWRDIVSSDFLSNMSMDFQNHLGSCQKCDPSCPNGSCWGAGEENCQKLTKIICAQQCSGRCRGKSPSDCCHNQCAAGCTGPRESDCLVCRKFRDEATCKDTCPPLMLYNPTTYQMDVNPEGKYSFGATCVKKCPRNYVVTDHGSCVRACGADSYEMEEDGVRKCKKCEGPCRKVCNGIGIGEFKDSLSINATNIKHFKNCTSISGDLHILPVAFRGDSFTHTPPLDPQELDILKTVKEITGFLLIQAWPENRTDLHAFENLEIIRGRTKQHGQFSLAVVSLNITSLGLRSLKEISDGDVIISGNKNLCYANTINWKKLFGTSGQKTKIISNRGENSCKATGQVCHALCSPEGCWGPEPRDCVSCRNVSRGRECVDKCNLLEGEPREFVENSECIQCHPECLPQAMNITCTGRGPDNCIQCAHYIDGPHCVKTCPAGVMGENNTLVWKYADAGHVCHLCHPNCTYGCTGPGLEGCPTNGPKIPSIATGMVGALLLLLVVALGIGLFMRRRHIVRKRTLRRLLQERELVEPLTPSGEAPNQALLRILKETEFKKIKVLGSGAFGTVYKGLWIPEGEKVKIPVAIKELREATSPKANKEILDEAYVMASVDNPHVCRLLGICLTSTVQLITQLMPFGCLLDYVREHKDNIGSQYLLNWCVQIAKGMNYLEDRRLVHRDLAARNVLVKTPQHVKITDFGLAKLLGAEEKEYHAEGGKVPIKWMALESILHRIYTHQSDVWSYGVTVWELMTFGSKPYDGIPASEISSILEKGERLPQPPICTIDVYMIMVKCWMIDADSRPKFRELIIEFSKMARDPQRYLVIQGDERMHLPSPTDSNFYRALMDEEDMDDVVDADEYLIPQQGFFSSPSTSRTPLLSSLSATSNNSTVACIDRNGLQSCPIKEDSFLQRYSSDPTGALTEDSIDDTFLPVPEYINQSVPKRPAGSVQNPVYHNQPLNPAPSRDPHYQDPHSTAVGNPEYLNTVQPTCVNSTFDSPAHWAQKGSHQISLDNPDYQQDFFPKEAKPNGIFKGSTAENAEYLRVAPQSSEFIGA
Procedure, shortened: (§1)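 Kinase reaction run 40 min at room temperature with peptide and ATP after a 10 min compound–enzyme preincubation. Phosphorylation read as HTRF signal after 1 h with Eu³⁺ antibody, XL665-streptavidin and EDTA (Cisbio KinEASE-TK).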

[3] = system: EGFR wild-type cell line A431; assay: Cell proliferation inhibition experiment (CellTiter-Glo), A431; assay type: cell-based; conditions: Homo sapiens, A431 cells, Cell Titer-Glo, read-out: A431 EGFR WT IC50
Procedure, shortened: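 Luminescent CellTiter-Glo readout, 30 min at room temperature, after 72 h compound exposure at 37° C., 5% CO2 with 0.1% DMSO final. EGFR wild-type A431 cells were seeded at 800 per well and grown 24 h before dosing. IC50 derived from the dose-response.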

[4] = target: T2, L858R/T790M/C797S triple mutant EGFR (Homo sapiens, UniProt P00533, C797S/L858R/T790M); assay: Enzymology experiment in vitro (HTRF/FRET kinase activity), L858R/T790M/C797S triple mutant EGFR; assay type: biochemical; conditions: HTRF KinEASE-TK
T2 construct: purchased Signalchem
T2 sequence (P00533 25-1210 T790M/C797S/L858R): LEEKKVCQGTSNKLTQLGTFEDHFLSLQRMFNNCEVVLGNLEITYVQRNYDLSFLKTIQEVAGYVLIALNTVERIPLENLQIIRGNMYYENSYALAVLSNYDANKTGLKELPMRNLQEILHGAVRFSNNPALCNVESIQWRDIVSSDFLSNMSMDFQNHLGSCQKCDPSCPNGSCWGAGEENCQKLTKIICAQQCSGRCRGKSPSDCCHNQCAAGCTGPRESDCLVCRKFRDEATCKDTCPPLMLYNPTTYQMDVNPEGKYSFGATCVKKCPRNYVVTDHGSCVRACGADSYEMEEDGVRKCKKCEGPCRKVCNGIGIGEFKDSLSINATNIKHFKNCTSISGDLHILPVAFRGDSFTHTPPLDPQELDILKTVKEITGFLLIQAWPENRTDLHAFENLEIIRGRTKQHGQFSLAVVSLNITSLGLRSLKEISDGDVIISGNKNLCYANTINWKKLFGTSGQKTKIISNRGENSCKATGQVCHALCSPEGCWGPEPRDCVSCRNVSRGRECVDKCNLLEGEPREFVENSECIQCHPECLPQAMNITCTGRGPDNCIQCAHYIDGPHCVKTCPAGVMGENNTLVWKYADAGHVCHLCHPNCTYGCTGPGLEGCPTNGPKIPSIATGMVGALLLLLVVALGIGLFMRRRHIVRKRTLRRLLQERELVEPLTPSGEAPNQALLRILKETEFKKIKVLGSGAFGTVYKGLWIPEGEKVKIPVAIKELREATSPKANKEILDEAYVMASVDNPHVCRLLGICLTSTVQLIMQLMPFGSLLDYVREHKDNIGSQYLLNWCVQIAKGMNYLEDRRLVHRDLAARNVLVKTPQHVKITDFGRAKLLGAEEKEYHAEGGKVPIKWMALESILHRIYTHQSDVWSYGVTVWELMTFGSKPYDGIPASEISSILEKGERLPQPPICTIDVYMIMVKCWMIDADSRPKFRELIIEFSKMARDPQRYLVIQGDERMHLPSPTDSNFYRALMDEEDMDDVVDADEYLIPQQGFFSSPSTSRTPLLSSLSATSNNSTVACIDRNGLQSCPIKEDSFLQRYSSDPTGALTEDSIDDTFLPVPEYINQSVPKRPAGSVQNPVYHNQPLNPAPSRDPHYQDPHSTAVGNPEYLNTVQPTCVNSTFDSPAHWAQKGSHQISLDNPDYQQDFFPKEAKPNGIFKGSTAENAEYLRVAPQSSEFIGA
Procedure, shortened: as §1

[5] = read-out: EGFR (L858R/T790M/C797S) IC50

Compound | GI50 [1] | GI50 [2] | IC50 (wild-type EGFR; read-out: EGFR (WT) IC50) | IC50 ([3]; A-431, 72 h) | IC50 [4, 5] | IC50 (wild-type EGFR; EGFR (WT) IC50(nM)) | IC50 ([3]; A-431, 72 hours) | IC50 ([4]; EGFR (L858R/T790M/C797S) IC50(nM))
COc1cc(N2CCC3(CC2)COC3)c(-c2cnn(C)c2)cc1Nc1ncc(Br)c(Nc2ccc3nccnc3c2P(C)(C)=O)n1 [compound 15] | 15.6 nM | 4.62 nM | 12.2 nM | 177 nM | < 0.05 nM |  |  | 
COc1cc(N2CCC(N3CCN(C)CC3)CC2)c(-c2cnn(C)c2)cc1Nc1ncc(Br)c(Nc2ccc3nccnc3c2P(C)(C)=O)n1 [compound 18] | 20.9 nM | 2.87 nM | 1.26 nM | 45.4 nM | 0.08 nM |  |  | 
COc1cc(N2CCOCC2)c(-c2cnoc2)cc1Nc1ncc(Br)c(Nc2ccc3nccnc3c2P(C)(C)=O)n1 [compound 19] | 68.8 nM | 6.71 nM | 39.3 nM | 488 nM | 0.17 nM |  |  | 
COc1ccc(-n2cccn2)cc1Nc1ncc(Br)c(Nc2ccc3nccnc3c2P(C)(C)=O)n1 [compound 20] | 629 nM | 277 nM | 179 nM | 1590 nM | 9.21 nM |  |  | 
COc1cc(N(C)CCN(C)C)c(-c2cnn(C)c2)cc1Nc1ncc(Br)c(Nc2ccc3nccnc3c2P(C)(C)=O)n1 [compound 21] | 18.1 nM | 4.03 nM | 1.57 nM | 63.9 nM | 0.06 nM |  |  | 
COc1c(Nc2ncc(Br)c(Nc3ccc4nccnc4c3P(C)(C)=O)n2)cc(-c2cnn(C)c2)c(N2CCOCC2)c1F [compound 23] | 30.3 nM | 8.67 nM | 40.3 nM | 195 nM | 1.92 nM |  |  | 
CCOP(C)(=O)c1c(Nc2nc(Nc3cc(-c4cnn(C)c4)c(N4CCOCC4)c(F)c3OC)ncc2Br)ccc2nccnc12 (centres unmarked) [compound 24] | 139 nM | 45.2 nM |  |  |  | 346 nM | 567 nM | 11.4 nM
COc1cc(N2CCOCC2)c(-c2cnn(C)c2)cc1Nc1ncc(C(F)(F)F)c(Nc2ccc3nccnc3c2P(C)(C)=O)n1 [compound 25] | 8.64 nM | 2.41 nM | 18.7 nM | 159 nM | 0.19 nM |  |  | 
COc1cc(N2CCC(OC)CC2)c(-c2cnn(C)c2)cc1Nc1ncc(Br)c(Nc2ccc3nccnc3c2P(C)(C)=O)n1 [compound 26] | 4.25 nM | 1.22 nM | 5.75 nM | 152 nM | 0.49 nM |  |  | 
COCCN(C)c1cc(OC)c(Nc2ncc(Br)c(Nc3ccc4nccnc4c3P(C)(C)=O)n2)cc1-c1cnn(C)c1 [compound 28] | 13.7 nM | 4.73 nM | 15.4 nM | 362 nM | 0.13 nM |  |  | 
CN(C)c1c(-c2cnn(C)c2)cc(Nc2ncc(Br)c(Nc3ccc4nccnc4c3P(C)(C)=O)n2)c2c1CCO2 [compound 29] | 4.25 nM | 1.29 nM | 3.37 nM | 121 nM | 0.06 nM |  |  | 
COc1ncc(-c2cnn(C)c2)cc1Nc1ncc(Br)c(Nc2ccc3nccnc3c2P(C)(C)=O)n1 [compound 30] | 62.6 nM | 12.1 nM | 55.7 nM | 284 nM | 1.01 nM |  |  | 
COc1cc(N(C)C)c(-c2cnn(C)c2)cc1Nc1ncc(Br)c(Nc2ccc3nccnc3c2P(C)(C)=O)n1 [compound 32] | 5.45 nM | 0.98 nM | 3.07 nM | 208 nM | 0.22 nM |  |  | 
Cn1cc(-c2cc(Nc3ncc(Br)c(Nc4ccc5nccnc5c4P(C)(C)=O)n3)c(OCC(F)(F)F)nc2N2CCOCC2)cn1 [compound 34] | 8.94 nM | 2.04 nM | 15.2 nM | 462 nM | 0.27 nM |  |  | 
CCOc1nc(N2CCOCC2)c(-c2cnn(C)c2)cc1Nc1ncc(Br)c(Nc2ccc3nccnc3c2P(C)(C)=O)n1 [compound 36] | 17.7 nM | 2.63 nM | 21.9 nM | 320 nM | 0.54 nM |  |  | 
COc1nc(N2CCOCC2)c(-c2cn(C)nc2C)cc1Nc1ncc(Br)c(Nc2ccc3nccnc3c2P(C)(C)=O)n1 [compound 37] | 65.6 nM | 32.6 nM | 268 nM | 1140 nM | 3.18 nM |  |  | 
